Results: ChEMBL document CHEMBL2086254, “Synthesis and identification of novel indolo[2,3-a]pyrimido[5,4-c]carbazoles as a new class of anti-cancer agents” (Eur J Med Chem, 2012)

Experiments:
Type in all cases: functional
A498 = assay: Cytotoxicity against human A498 cells assessed as cell growth at 10 uM after 48 hrs by SRB assay relative to control; details: A498, 48 h, read-out: Activity
RXF 393 = assay: Cytotoxicity against human RXF393 cells assessed as cell growth at 10 uM after 48 hrs by SRB assay relative to control; details: RXF 393, 48 h, read-out: Activity
TK-10 = assay: Cytotoxicity against human TK10 cells assessed as cell growth at 10 uM after 48 hrs by SRB assay relative to control; details: TK-10, 48 h, read-out: Activity
PC-3 = assay: Cytotoxicity against human PC3 cells assessed as cell growth at 10 uM after 48 hrs by SRB assay relative to control; details: PC-3, 48 h, read-out: Activity
DU-145 = assay: Cytotoxicity against human DU145 cells assessed as cell growth at 10 uM after 48 hrs by SRB assay relative to control; details: DU-145, 48 h, read-out: Activity
[1] = Cytotoxicity against human Hs 578T cells assessed as cell growth at 10 uM after 48 hrs by SRB assay relative to control; details: read-out: Activity
BT-549 = assay: Cytotoxicity against human BT549 cells assessed as cell growth at 10 uM after 48 hrs by SRB assay relative to control; details: BT-549, 48 h, read-out: Activity
T47D = assay: Cytotoxicity against human T47D cells assessed as cell growth at 10 uM after 48 hrs by SRB assay relative to control; details: read-out: Activity
SNB-75 = assay: Cytotoxicity against human SNB75 cells assessed as cell growth at 10 uM after 48 hrs by SRB assay relative to control; details: SNB-75, 48 h, read-out: Activity
U-251 = assay: Cytotoxicity against human U251 cells assessed as cell growth at 10 uM after 48 hrs by SRB assay relative to control; details: U-251, 48 h, read-out: Activity
MDA-MB-435 = assay: Cytotoxicity against human MDA-MB-435 cells assessed cell growth at 10 uM after 48 hrs by SRB assay relative to control
IGROV-1 = assay: Cytotoxicity against human IGROV1 cells assessed as cell growth at 10 uM after 48 hrs by SRB assay relative to control; details: IGROV-1, 48 h, read-out: Activity
UO-31 = assay: Cytotoxicity against human UO31 cells assessed as cell growth at 10 uM after 48 hrs by SRB assay relative to control; details: UO-31, 48 h, read-out: Activity
MCF7 = assay: Cytotoxicity against human MCF7 cells assessed as cell growth at 10 uM after 48 hrs by SRB assay relative to control; details: MCF7, 48 h, read-out: Activity
HCT-116 = assay: Cytotoxicity against human HCT116 cells assessed as cell growth at 10 uM after 48 hrs by SRB assay relative to control; details: HCT-116, 48 h, read-out: Activity
SW-620 = assay: Cytotoxicity against human SW620 cells assessed as cell growth at 10 uM after 48 hrs by SRB assay relative to control; details: SW-620, 48 h, read-out: Activity
M14 = assay: Cytotoxicity against human M14 cells assessed as cell growth at 10 uM after 48 hrs by SRB assay relative to control; details: M14, 48 h, read-out: Activity
SK-MEL-2 = assay: Cytotoxicity against human SK-MEL-2 cells assessed as cell growth at 10 uM after 48 hrs by SRB assay relative to control; details: SK-MEL-2, 48 h, read-out: Activity
SK-OV-3 = assay: Cytotoxicity against human SKOV3 cells assessed as cell growth at 10 uM after 48 hrs by SRB assay relative to control; details: SK-OV-3, 48 h, read-out: Activity
A549 = assay: Cytotoxicity against human A549 cells assessed as cell growth at 10 uM after 48 hrs by SRB assay relative to control; details: A549, 48 h, read-out: Activity
K562 = assay: Cytotoxicity against human K562 cells assessed as cell growth at 10 uM after 48 hrs by SRB assay relative to control; details: K562, 48 h, read-out: Activity
RPMI-8226 = assay: Cytotoxicity against human RPMI8226 cells assessed as cell growth at 10 uM after 48 hrs by SRB assay relative to control; details: RPMI-8226, 48 h, read-out: Activity
HOP-62 = assay: Cytotoxicity against human HOP62 cells assessed as cell growth at 10 uM after 48 hrs by SRB assay relative to control; details: HOP-62, 48 h, read-out: Activity
NCI-H23 = assay: Cytotoxicity against human NCI-H23 cells assessed as cell growth at 10 uM after 48 hrs by SRB assay relative to control; details: NCI-H23, 48 h, read-out: Activity
HCT-15 = assay: Cytotoxicity against human HCT15 cells assessed as cell growth at 10 uM after 48 hrs by SRB assay relative to control; details: HCT-15, 48 h, read-out: Activity
SF-268 = assay: Cytotoxicity against human SF268 cells assessed as cell growth at 10 uM after 48 hrs by SRB assay relative to control; details: SF-268, 48 h, read-out: Activity
SF-295 = assay: Cytotoxicity against human SF295 cells assessed as cell growth at 10 uM after 48 hrs by SRB assay relative to control; details: SF-295, 48 h, read-out: Activity
SNB-19 = assay: Cytotoxicity against human SNB19 cells assessed as cell growth at 10 uM after 48 hrs by SRB assay relative to control; details: SNB-19, 48 h, read-out: Activity
LOX IMVI = assay: Cytotoxicity against human LOXIMVI cells assessed as cell growth at 10 uM after 48 hrs by SRB assay relative to control; details: read-out: Activity
Malme-3M = assay: Cytotoxicity against human MALME-3M cells assessed as cell growth at 10 uM after 48 hrs by SRB assay relative to control; details: read-out: Activity
SK-MEL-28 = assay: Cytotoxicity against human SK-MEL-28 cells assessed as cell growth at 10 uM after 48 hrs by SRB assay relative to control; details: SK-MEL-28, 48 h, read-out: Activity
SK-MEL-5 = assay: Cytotoxicity against human SK-MEL-5 cells assessed as cell growth at 10 uM after 48 hrs by SRB assay relative to control; details: SK-MEL-5, 48 h, read-out: Activity
UACC-257 = assay: Cytotoxicity against human UACC257 cells assessed as cell growth at 10 uM after 48 hrs by SRB assay relative to control; details: UACC-257, 48 h, read-out: Activity
OVCAR-3 = assay: Cytotoxicity against human OVCAR3 cells assessed as cell growth at 10 uM after 48 hrs by SRB assay relative to control; details: OVCAR-3, 48 h, read-out: Activity
NCI/ADR-RES = assay: Cytotoxicity against human NCI/ADR-RES cells assessed as cell growth at 10 uM after 48 hrs by SRB assay relative to control; details: read-out: Activity

| Structure (SMILES) | growth at 10 µM (A498) | growth at 10 µM (RXF 393) | growth at 10 µM (TK-10) | growth at 10 µM (PC-3) | growth at 10 µM (DU-145) | growth at 10 µM [1] | growth at 10 µM (BT-549) | growth at 10 µM (T47D) | growth at 10 µM (SNB-75) | growth at 10 µM (U-251) | Activity (MDA-MB-435) | growth at 10 µM (IGROV-1) | growth at 10 µM (UO-31) | growth at 10 µM (MCF7) | growth at 10 µM (HCT-116) | growth at 10 µM (SW-620) | growth at 10 µM (M14) | growth at 10 µM (SK-MEL-2) | growth at 10 µM (SK-OV-3) | growth at 10 µM (A549) | also measured |
| --- | --- | --- | --- | --- | --- | --- | --- | --- | --- | --- | --- | --- | --- | --- | --- | --- | --- | --- | --- | --- | --- |
| Cn1c2ccccc2c2c3c(=O)[nH]c(N)nc3c3c4cccnc4n(C)c3c21 | 97.5% | 87.4% | 76.4% | 71% | 83.2% | 128% | 66% | 48.7% | 74.1% | 81.2% | 87.02% | 94.2% | 39.4% | 45.2% | 63% | 72% | 68.8% | 68.5% | 87.2% | 92.9% | growth at 10 µM (K562): 74%; growth at 10 µM (RPMI-8226): 64.4%; growth at 10 µM (HOP-62): 84.1%; growth at 10 µM (NCI-H23): 86.3%; growth at 10 µM (HCT-15): 67.4%; growth at 10 µM (SF-268): 95.6%; growth at 10 µM (SF-295): 94.1%; growth at 10 µM (SNB-19): 103%; growth at 10 µM (LOX IMVI): 66%; growth at 10 µM (Malme-3M): 119%; growth at 10 µM (SK-MEL-28): 120%; growth at 10 µM (SK-MEL-5): 74.7%; growth at 10 µM (UACC-257): 129%; growth at 10 µM (OVCAR-3): 98.2%; growth at 10 µM (NCI/ADR-RES): 80.2% |
| Cn1cc(-c2c(-c3cn(C)c4ncccc34)nc(N)[nH]c2=O)c2ccccc21 | 85.7% | 124% | 113% | 84.2% | 107% | 101% | 95.8% | 83% | 87.5% | 77.5% | 98.77% | 87.1% | 79% | 86% | 98% | 97.5% | 103% | 105% | 98.3% | 102% | growth at 10 µM (K562): 95%; growth at 10 µM (RPMI-8226): 85.1%; growth at 10 µM (HOP-62): 91.5%; growth at 10 µM (NCI-H23): 92.6%; growth at 10 µM (HCT-15): 103%; growth at 10 µM (SF-268): 101%; growth at 10 µM (SF-295): 98.2%; growth at 10 µM (SNB-19): 111%; growth at 10 µM (LOX IMVI): 99.9%; growth at 10 µM (Malme-3M): 107%; growth at 10 µM (SK-MEL-28): 11%; growth at 10 µM (SK-MEL-5): 96.5%; growth at 10 µM (UACC-257): 103%; growth at 10 µM (OVCAR-3): 99.7%; growth at 10 µM (NCI/ADR-RES): 101% |
| Cn1cc(-c2[nH]c(=O)[nH]c(=O)c2-c2cn(C)c3ccccc23)c2ccccc21 | 112% | 111% | 94.5% | 86.1% | 115% | 105% | 95.8% | 82.4% | 70.2% | 113% | 73.39% | 62.2% | 75.8% | 60.1% | 91.7% | 88.8% | 89.8% | 118% | 96.8% | 96.9% | growth at 10 µM (K562): 93.8%; growth at 10 µM (RPMI-8226): 98.9%; growth at 10 µM (HOP-62): 83.3%; growth at 10 µM (NCI-H23): 91.4%; growth at 10 µM (HCT-15): 95%; growth at 10 µM (SF-268): 106%; growth at 10 µM (SF-295): 97.1%; growth at 10 µM (SNB-19): 109%; growth at 10 µM (LOX IMVI): 104%; growth at 10 µM (Malme-3M): 98.6%; growth at 10 µM (SK-MEL-28): 103%; growth at 10 µM (SK-MEL-5): 101%; growth at 10 µM (UACC-257): 82.1%; growth at 10 µM (OVCAR-3): 97.3%; growth at 10 µM (NCI/ADR-RES): 103% |
| Cn1cc(-c2[nH]c(=S)[nH]c(=O)c2-c2cn(C)c3ccccc23)c2ccccc21 | 102% | 123% | 96.3% | 92.1% | 110% | 103% | 102% | 98.3% | 85.7% | 89% | 77.23% | 75.7% | 75.8% | 68.2% | 98.8% | 98% | 106% | 111% | 100% | 103% | growth at 10 µM (K562): 87%; growth at 10 µM (RPMI-8226): 91%; growth at 10 µM (HOP-62): 92.3%; growth at 10 µM (NCI-H23): 94.2%; growth at 10 µM (HCT-15): 95.2%; growth at 10 µM (SF-268): 106%; growth at 10 µM (SF-295): 94.2%; growth at 10 µM (SNB-19): 105%; growth at 10 µM (LOX IMVI): 92.2%; growth at 10 µM (Malme-3M): 99.5%; growth at 10 µM (SK-MEL-28): 104%; growth at 10 µM (SK-MEL-5): 96.2%; growth at 10 µM (UACC-257): 94.2%; growth at 10 µM (OVCAR-3): 98.7%; growth at 10 µM (NCI/ADR-RES): 101% |
| Cn1cc(-c2nc(N)[nH]c(=O)c2-c2cn(C)c3ccccc23)c2ccccc21 | 112% | 131% | 82.3% | 89.7% | 122% | 103% | 102% | 93.8% | 103% | 100% | 109.77% | 68.9% | 64.6% | 77.6% | 99% | 94% | 97.6% | 102% | 95.8% | 101% | growth at 10 µM (K562): 111%; growth at 10 µM (RPMI-8226): 111%; growth at 10 µM (HOP-62): 85.3%; growth at 10 µM (NCI-H23): 95%; growth at 10 µM (HCT-15): 117%; growth at 10 µM (SF-268): 109%; growth at 10 µM (SF-295): 90.7%; growth at 10 µM (SNB-19): 111%; growth at 10 µM (LOX IMVI): 118%; growth at 10 µM (Malme-3M): 112%; growth at 10 µM (SK-MEL-28): 118%; growth at 10 µM (SK-MEL-5): 101%; growth at 10 µM (UACC-257): 95.6%; growth at 10 µM (OVCAR-3): 109%; growth at 10 µM (NCI/ADR-RES): 108% |
